According to patent publication US8959984B2, “Proteome-wide quantification of small molecule binding to cellular target proteins” (priority 2007, dated 2015):

Assays:
[1] = molecular target: ROCK2 (Homo sapiens, UniProt O75116); assay: binding to immobilized V16742 (IVA1/IVA2, HeLa lysate, MS)
[2] = molecular target: T1, RPSA (IPI00413108) (Homo sapiens, UniProt P08865); assay: binding to VI16742 beads (HeLa lysate, SILAC MS)
T1 construct: endogenous in cells; host or cells: HeLa S3
In short: (§1)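 Specific retention on the inhibitor resin served as the read-out of binding. The bait is a broadly selective kinase inhibitor built on a pyrido[2,3-d]pyrimidine scaffold, used for affinity capture from lysate.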

[3] = molecular target: T2, CSK (IPI00013212) (Homo sapiens, UniProt P41240); assay: binding to VI16742 beads (HeLa lysate, SILAC MS)
T2 construct: endogenous in cells; host or cells: HeLa S3 cell lysate
T2 sequence (P41240 whole entry): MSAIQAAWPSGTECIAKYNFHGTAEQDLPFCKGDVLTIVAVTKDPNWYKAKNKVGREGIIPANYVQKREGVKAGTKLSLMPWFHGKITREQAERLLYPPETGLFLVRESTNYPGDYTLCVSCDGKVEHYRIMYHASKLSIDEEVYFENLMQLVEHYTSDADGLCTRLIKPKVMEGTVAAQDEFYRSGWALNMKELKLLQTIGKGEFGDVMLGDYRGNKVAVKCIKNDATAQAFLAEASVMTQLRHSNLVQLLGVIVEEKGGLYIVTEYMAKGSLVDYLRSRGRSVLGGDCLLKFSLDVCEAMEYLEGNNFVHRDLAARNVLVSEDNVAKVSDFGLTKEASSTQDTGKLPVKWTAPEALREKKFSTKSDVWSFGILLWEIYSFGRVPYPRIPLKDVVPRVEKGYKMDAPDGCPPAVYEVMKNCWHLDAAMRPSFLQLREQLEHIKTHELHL
In short: as §1

[4] = molecular target: T3, ACLY (IPI00021290) (Homo sapiens, UniProt P53396); assay: binding to VI16742 beads (HeLa lysate, SILAC MS)
T3 construct: endogenous in cells; host or cells: HeLa S3
T3 sequence (P53396 1-1101): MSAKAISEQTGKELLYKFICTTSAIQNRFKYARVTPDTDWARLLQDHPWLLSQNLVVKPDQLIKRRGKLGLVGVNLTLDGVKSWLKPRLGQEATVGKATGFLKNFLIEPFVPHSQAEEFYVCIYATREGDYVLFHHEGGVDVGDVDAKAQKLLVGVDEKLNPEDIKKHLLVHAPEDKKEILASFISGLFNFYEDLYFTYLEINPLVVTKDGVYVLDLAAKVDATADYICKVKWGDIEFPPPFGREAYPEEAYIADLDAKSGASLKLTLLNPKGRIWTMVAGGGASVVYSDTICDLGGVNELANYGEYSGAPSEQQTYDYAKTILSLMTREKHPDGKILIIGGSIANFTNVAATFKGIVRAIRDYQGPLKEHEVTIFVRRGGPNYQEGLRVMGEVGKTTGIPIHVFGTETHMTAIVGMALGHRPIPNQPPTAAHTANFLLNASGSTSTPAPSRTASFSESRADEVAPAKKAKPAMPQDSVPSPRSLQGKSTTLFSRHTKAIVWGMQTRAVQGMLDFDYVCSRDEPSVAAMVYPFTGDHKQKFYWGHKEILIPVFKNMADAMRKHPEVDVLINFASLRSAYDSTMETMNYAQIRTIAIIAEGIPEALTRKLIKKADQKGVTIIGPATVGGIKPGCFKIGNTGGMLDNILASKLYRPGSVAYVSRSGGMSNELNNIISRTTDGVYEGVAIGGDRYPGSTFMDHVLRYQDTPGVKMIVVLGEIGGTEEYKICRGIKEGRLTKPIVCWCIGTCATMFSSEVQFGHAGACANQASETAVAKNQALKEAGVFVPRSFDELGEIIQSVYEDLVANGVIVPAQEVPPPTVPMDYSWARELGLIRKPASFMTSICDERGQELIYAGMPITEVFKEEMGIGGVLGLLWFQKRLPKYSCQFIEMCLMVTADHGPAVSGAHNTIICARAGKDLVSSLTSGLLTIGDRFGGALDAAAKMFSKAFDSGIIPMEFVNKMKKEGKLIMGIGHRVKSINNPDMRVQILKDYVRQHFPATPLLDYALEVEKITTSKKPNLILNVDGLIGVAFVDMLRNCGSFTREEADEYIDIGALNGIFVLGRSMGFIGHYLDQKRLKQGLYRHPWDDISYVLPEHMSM
In short: as §1

[5] = molecular target: T4, XTP3TPA (IPI00012197) (Homo sapiens, UniProt Q9H773); assay: binding to VI16742 beads (HeLa lysate, SILAC MS)
T4 construct: endogenous in cells; host or cells: HeLa S3
T4 sequence (Q9H773 1-170): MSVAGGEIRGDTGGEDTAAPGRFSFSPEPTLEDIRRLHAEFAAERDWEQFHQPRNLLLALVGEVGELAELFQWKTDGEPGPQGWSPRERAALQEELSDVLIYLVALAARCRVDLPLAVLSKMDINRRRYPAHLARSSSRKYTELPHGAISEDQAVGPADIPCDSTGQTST
In short: as §1

[6] = molecular target: T5, PKN2 (IPI00002804) (Homo sapiens, UniProt Q16513); assay: binding to VI16742 beads (HeLa lysate, SILAC MS)
T5 construct: endogenous in cells; host or cells: HeLa S3
T5 sequence (Q16513 whole entry): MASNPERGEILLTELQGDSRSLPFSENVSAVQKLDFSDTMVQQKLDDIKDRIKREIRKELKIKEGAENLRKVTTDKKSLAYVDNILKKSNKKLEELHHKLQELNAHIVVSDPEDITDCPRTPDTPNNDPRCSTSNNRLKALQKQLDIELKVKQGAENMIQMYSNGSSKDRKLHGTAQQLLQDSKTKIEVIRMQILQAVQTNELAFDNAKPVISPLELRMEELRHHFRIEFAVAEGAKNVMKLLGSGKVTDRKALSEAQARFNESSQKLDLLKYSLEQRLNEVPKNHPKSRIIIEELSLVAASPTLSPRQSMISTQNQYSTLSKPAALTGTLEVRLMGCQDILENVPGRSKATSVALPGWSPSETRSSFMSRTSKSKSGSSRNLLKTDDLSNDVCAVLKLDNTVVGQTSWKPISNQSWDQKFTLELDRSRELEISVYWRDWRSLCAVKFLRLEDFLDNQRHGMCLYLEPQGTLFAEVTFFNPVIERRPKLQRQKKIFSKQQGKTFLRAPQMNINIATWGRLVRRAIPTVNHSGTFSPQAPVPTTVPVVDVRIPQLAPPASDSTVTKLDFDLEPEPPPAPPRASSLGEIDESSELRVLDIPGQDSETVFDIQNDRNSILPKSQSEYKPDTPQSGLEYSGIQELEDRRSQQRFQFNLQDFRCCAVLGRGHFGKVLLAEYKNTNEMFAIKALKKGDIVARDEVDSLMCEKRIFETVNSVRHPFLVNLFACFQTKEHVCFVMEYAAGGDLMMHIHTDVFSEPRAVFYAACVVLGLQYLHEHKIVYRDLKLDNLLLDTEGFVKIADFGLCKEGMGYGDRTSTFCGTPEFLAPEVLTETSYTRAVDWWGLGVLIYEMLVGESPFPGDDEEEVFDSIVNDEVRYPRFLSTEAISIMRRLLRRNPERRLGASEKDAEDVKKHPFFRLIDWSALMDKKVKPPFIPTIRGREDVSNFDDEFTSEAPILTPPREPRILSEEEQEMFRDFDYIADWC
In short: as §1

[7] = molecular target: p38a (MAPK14, IPI00221141) (Homo sapiens, UniProt Q16539); assay: binding to VI16742 beads (HeLa lysate, SILAC MS)
p38a (MAPK14, IPI00221141), sequence (Q16539 1-360 isoform Q16539-2): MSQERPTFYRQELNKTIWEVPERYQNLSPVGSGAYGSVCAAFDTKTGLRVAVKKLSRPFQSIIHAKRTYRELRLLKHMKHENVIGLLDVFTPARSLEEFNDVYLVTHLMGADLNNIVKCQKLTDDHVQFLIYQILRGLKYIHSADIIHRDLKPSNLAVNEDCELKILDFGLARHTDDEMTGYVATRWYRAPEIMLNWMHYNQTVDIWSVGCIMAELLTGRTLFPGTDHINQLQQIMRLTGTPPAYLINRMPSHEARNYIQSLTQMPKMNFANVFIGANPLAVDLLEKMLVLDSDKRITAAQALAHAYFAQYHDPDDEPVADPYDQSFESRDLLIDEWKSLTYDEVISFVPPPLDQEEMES
In short: as §1

[8] = molecular target: T6, LOK (STK10, IPI00304742) (Homo sapiens, UniProt O94804); assay: binding to VI16742 beads (HeLa lysate, SILAC MS)
T6 construct: endogenous in cells; host or cells: HeLa S3
T6 sequence (O94804 whole entry): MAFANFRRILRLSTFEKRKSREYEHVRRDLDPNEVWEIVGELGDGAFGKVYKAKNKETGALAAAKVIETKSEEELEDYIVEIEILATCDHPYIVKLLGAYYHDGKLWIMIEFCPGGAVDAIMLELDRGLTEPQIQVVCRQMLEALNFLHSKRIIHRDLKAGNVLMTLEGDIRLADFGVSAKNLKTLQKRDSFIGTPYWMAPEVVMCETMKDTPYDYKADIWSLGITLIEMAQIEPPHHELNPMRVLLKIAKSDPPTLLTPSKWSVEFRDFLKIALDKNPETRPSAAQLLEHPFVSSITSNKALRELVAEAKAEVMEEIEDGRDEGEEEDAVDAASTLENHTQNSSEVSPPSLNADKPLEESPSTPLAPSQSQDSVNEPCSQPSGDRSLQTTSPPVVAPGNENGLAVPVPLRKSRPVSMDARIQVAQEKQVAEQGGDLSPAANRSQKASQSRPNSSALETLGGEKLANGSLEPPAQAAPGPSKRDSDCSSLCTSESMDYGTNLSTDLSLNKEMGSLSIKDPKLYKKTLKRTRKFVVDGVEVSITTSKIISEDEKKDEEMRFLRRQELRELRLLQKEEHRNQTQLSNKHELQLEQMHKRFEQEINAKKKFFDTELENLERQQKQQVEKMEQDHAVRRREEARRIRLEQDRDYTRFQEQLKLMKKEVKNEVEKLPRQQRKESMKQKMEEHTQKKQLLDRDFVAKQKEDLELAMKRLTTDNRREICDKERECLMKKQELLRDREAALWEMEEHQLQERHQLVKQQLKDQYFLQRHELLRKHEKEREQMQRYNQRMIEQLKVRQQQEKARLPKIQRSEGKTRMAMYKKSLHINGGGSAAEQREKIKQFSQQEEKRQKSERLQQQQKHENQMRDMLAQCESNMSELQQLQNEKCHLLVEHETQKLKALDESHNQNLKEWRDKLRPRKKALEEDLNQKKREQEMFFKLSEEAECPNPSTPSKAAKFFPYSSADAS
In short: as §1

[9] = molecular target: T7, BUB1 (IPI00783305) (Homo sapiens, UniProt O43683); assay: binding to VI16742 beads (HeLa lysate, SILAC MS)
T7 construct: endogenous in cells; host or cells: HeLa S3
T7 sequence (O43683 whole entry): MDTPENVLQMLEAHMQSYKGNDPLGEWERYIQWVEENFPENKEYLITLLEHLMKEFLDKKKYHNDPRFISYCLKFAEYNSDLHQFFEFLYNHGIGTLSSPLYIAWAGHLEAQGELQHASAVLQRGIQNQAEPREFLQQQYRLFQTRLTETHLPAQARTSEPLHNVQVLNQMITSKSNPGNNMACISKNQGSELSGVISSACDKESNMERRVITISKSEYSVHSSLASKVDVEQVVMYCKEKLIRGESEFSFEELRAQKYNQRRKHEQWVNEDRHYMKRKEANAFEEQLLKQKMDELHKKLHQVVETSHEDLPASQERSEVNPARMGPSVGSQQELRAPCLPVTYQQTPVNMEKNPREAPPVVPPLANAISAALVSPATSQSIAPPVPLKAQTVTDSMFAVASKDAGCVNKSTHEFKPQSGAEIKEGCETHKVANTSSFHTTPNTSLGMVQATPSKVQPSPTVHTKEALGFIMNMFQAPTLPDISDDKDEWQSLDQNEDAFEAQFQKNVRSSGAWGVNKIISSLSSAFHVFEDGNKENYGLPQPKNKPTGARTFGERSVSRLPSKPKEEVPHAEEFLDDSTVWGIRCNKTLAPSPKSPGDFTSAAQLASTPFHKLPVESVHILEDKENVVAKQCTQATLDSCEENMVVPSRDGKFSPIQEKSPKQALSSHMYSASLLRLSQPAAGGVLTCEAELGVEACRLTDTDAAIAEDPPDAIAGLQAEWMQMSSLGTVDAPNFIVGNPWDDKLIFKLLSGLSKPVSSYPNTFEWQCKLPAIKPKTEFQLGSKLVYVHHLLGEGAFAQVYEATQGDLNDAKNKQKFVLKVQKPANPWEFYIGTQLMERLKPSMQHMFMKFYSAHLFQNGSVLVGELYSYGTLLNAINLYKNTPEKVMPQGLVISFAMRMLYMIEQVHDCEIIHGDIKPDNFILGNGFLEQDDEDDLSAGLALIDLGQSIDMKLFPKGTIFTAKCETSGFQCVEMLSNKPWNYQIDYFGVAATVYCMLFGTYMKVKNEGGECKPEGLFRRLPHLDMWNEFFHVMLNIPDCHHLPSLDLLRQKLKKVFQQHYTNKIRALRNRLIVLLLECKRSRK
In short: as §1

[10] = molecular target: T8, MAP2K3 (IPI00218858) (Homo sapiens, UniProt P46734); assay: binding to VI16742 beads (HeLa lysate, SILAC MS)
T8 construct: endogenous in cells; host or cells: HeLa S3
T8 sequence (P46734 1-347): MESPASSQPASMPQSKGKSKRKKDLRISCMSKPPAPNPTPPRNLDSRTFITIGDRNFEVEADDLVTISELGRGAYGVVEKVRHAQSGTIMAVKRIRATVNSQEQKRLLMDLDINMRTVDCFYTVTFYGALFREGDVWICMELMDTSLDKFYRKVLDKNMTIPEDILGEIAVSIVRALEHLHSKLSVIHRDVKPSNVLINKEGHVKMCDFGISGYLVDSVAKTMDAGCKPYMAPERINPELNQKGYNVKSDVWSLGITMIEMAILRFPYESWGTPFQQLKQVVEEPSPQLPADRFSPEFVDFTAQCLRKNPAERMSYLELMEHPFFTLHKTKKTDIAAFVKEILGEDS
In short: as §1

[11] = control beads vs first incubation

Compound: CC(C)n1c(=O)ccc2cnc(Nc3ccc(OCCN)cc3)nc21 [V16742]
- affinity class of target for V16742 [1]: Very low affinity target not significantly enriched in IVA2
- r (3 MG/1 MG LYSATE) ([2]; 3 mg vs 1 mg lysate): 3.92
- r (5 h/2.5 h INC. TIME) ([2]; 5 h vs 2.5 h incubation time): 2.26
- rAVERAGE (CTRL/1 INC) [2, 11]: 0.11
- Ki ([2]; immobilized VI16742): 185 µM
- rAVERAGE (2 INC/1 INC) ([2]; second vs first incubation): 0.78
- r (5 h/2.5 h INC. TIME) ([3]; 5 h vs 2.5 h incubation time): 1.51
- rAVERAGE (CTRL/1 INC) [3, 11]: 0.02
- Ki ([3]; immobilized VI16742): 79.5 µM
- rAVERAGE (2 INC/1 INC) ([3]; second vs first incubation): 0.60
- r (3 MG/1 MG LYSATE) ([4]; 3 mg vs 1 mg lysate): 3.59
- r (5 h/2.5 h INC. TIME) ([4]; 5 h vs 2.5 h incubation time): 1.98
- rAVERAGE (CTRL/1 INC) [4, 11]: 0.06
- Ki ([4]; immobilized VI16742): 162 µM
- rAVERAGE (2 INC/1 INC) ([4]; second vs first incubation): 0.76
- r (3 MG/1 MG LYSATE) ([5]; 3 mg vs 1 mg lysate): 3.39
- r (5 h/2.5 h INC. TIME) ([5]; 5 h vs 2.5 h incubation time): 1.04
- rAVERAGE (CTRL/1 INC) [5, 11]: 0.08
- Ki ([5]; immobilized VI16742): 159 µM
- rAVERAGE (2 INC/1 INC) ([5]; second vs first incubation): 0.75
- r (3 MG/1 MG LYSATE) ([6]; 3 mg vs 1 mg lysate): 2.87
- r (5 h/2.5 h INC. TIME) ([6]; 5 h vs 2.5 h incubation time): 1.35
- rAVERAGE (CTRL/1 INC) [6, 11]: 0.03
- Ki ([6]; immobilized VI16742): 115 µM
- rAVERAGE (2 INC/1 INC) ([6]; second vs first incubation): 0.69
- r (5 h/2.5 h INC. TIME) ([7]; 5 h vs 2.5 h incubation time): 2.16
- rAVERAGE (CTRL/1 INC) [7, 11]: 0.10
- Ki ([7]; immobilized VI16742): 92.8 µM
- rAVERAGE (2 INC/1 INC) ([7]; second vs first incubation): 0.64
- rAVERAGE (CTRL/1 INC) [8, 11]: 0.07
- Ki ([8]; immobilized VI16742): 164 µM
- rAVERAGE (2 INC/1 INC) ([8]; second vs first incubation): 0.76
- rAVERAGE (CTRL/1 INC) [9, 11]: 0.05
- Ki ([9]; immobilized VI16742): 161 µM
- rAVERAGE (2 INC/1 INC) ([9]; second vs first incubation): 0.76
- r (5 h/2.5 h INC. TIME) ([10]; 5 h vs 2.5 h incubation time): 1.60
- rAVERAGE (CTRL/1 INC) [10, 11]: 0.05
- Ki ([10]; immobilized VI16742): 150 µM
- rAVERAGE (2 INC/1 INC) ([10]; second vs first incubation): 0.74
